According to patent US8987250B2 (Gilead Sciences, Inc., priority 2012, dated 2015):

system: HIV-IIIb; experiment: Test A: Antiviral Assay in MT4 Cells; format: cell-based; settings: Human immunodeficiency virus 1, IIIB, MT4, 120 h
Summary of the method: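 Read-out: CellTiter-Glo chemiluminescence after 5-day incubation at 37 °C. Compounds tested as 3-fold serial dilutions (10 concentrations, quadruplicate) in RPMI 1640 with 10% FBS, on MT-4 cells pre-infected at 37 °C with HIV-IIIb at 0.004 m.o.i.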

**Q.** With Cc1cc2nc(-c3cncc(N4CCN(C(C)C)CC4)n3)sc2c(-c2ccc(Cl)cc2)c1[C@H](OC(C)(C)C)C(=O)O [Compound 480, (S)-2-tert-butoxy-2-(7-(4-chlorophenyl)-2-(6-(4-isopropylpiperazin-1-yl)pyrazin-2-yl)-5-methylbenzo[d]thiazol-6-yl)acetic acid] as the molecule, how does the EC50 read?
**A.** The EC50 was 2 nM.

**Q.** How did the EC50 turn out when Cc1cc2nc(-c3ccnc(-c4ncc5c(n4)c(C)nn5C)c3)sc2c(-c2ccc(Cl)cc2)c1[C@H](OC(C)(C)C)C(=O)O [Compound 488, (S)-2-tert-butoxy-2-(7-(4-chlorophenyl)-2-(2-(1,3-dimethyl-1H-pyrazolo[4,3-d]pyrimidin-5-yl)pyridin-4-yl)-5-methylbenzo[d]thiazol-6-yl)acetic acid] was run?
**A.** Its EC50 is 11 nM.

**Q.** How did the EC50 turn out when Cc1cc2nc(-c3cnc(C)c(-c4ccc5c(cnn5C)n4)c3)sc2c(-c2ccc(Cl)cc2)c1[C@H](OC(C)(C)C)C(=O)O [Compound 490, (S)-2-tert-butoxy-2-(7-(4-chlorophenyl)-5-methyl-2-(6-methyl-5-(1-methyl-1H-pyrazolo[4,3-b]pyridin-5-yl)pyridin-3-yl)benzo[d]thiazol-6-yl)acetic acid] was run?
**A.** The EC50 was 3 nM.

same assay, conditions: Human immunodeficiency virus 1, IIIB, MT4, 120 h, Table 2; MT-4 cells infected with HIV-IIIb, 5 days of incubation, CellTiter-Glo; read-out: EC50

**Q.** Which EC50 does the source give for Cc1cc2nc(-c3ccnc(N4CCN(C(C)C)C[C@H]4C)n3)sc2c(-c2ccc(Cl)cc2)c1[C@H](OC(C)(C)C)C(=O)O [Compound 466, (S)-2-tert-butoxy-2-(7-(4-chlorophenyl)-2-(2-((R)-4-isopropyl-2-methylpiperazin-1-yl)pyrimidin-4-yl)-5-methylbenzo[d]thiazol-6-yl)acetic acid] here?
**A.** Its EC50 is 5 nM.

**Q.** Cc1cc2nc(-c3ccnc(N4CCN(C)[C@@H](C)C4)n3)sc2c(-c2ccc(Cl)cc2)c1[C@H](OC(C)(C)C)C(=O)O [Compound 468, (S)-2-tert-butoxy-2-(7-(4-chlorophenyl)-2-(2-((S)-3,4-dimethylpiperazin-1-yl)pyrimidin-4-yl)-5-methylbenzo[d]thiazol-6-yl)acetic acid] was tested. Which EC50 did it give?
**A.** The EC50 was 8 nM.

**Q.** For Cc1cc2nc(-c3ccnc(N4CCN(C)[C@H](C)C4)n3)sc2c(-c2ccc(Cl)cc2)c1[C@H](OC(C)(C)C)C(=O)O [Compound 469, (S)-2-tert-butoxy-2-(7-(4-chlorophenyl)-2-(2-((R)-3,4-dimethylpiperazin-1-yl)pyrimidin-4-yl)-5-methylbenzo[d]thiazol-6-yl)acetic acid], which EC50 is on record?
**A.** Its EC50 is 8 nM.

**Q.** Cc1cc2nc(-c3ccnc(N4CCN(C(C)C)[C@@H](C)C4)n3)sc2c(-c2ccc(Cl)cc2)c1[C@H](OC(C)(C)C)C(=O)O [Compound 470, (S)-2-tert-butoxy-2-(7-(4-chlorophenyl)-2-(2-((S)-4-isopropyl-3-methylpiperazin-1-yl)pyrimidin-4-yl)-5-methylbenzo[d]thiazol-6-yl)acetic acid] was tested. Which EC50 did it give?
**A.** Its EC50 is 3 nM.

**Q.** For Cc1cc2nc(-c3ccnc(N4CCN(C(C)C)[C@H](C)C4)n3)sc2c(-c2ccc(Cl)cc2)c1[C@H](OC(C)(C)C)C(=O)O [Compound 471, (S)-2-tert-butoxy-2-(7-(4-chlorophenyl)-2-(2-((R)-4-isopropyl-3-methylpiperazin-1-yl)pyrimidin-4-yl)-5-methylbenzo[d]thiazol-6-yl)acetic acid], which EC50 is on record?
**A.** Its EC50 is 3 nM.

**Q.** For Cc1cc2nc(-c3ccnc(N4CCN(C(=O)N(C)C)CC4)n3)sc2c(-c2ccc(Cl)cc2)c1[C@H](OC(C)(C)C)C(=O)O [Compound 472, (S)-2-tert-butoxy-2-(7-(4-chlorophenyl)-2-(2-(4-(dimethylcarbamoyl)piperazin-1-yl)pyrimidin-4-yl)-5-methylbenzo[d]thiazol-6-yl)acetic acid], which EC50 is on record?
**A.** The EC50 was 4 nM.

**Q.** CCN1CCN(c2nccc(-c3nc4cc(C)c([C@H](OC(C)(C)C)C(=O)O)c(-c5ccc(Cl)cc5)c4s3)n2)CC1=O [Compound 473, (S)-2-tert-butoxy-2-(7-(4-chlorophenyl)-2-(2-(4-ethyl-3-oxopiperazin-1-yl)pyrimidin-4-yl)-5-methylbenzo[d]thiazol-6-yl)acetic acid] was tested. Which EC50 did it give?
**A.** Its EC50 is 8 nM.

**Q.** For Cc1cc2nc(-c3ccnc(N4CCN(C(C)C(F)(F)F)CC4)n3)sc2c(-c2ccc(Cl)cc2)c1[C@H](OC(C)(C)C)C(=O)O (stereo partly drawn) [Compound 474, (2S)-2-tert-butoxy-2-(7-(4-chlorophenyl)-5-methyl-2-(2-(4-((2R/2S)-1,1,1-trifluoropropan-2-yl)piperazin-1-yl)pyrimidin-4-yl)benzo[d]thiazol-6-yl)acetic acid], which EC50 is on record?
**A.** The EC50 was 40 nM.

**Q.** With CCN1CCN(c2nccc(-c3nc4cc(C)c([C@H](OC(C)(C)C)C(=O)O)c(-c5ccc(Cl)cc5)c4s3)n2)CC1 [Compound 475, (S)-2-tert-butoxy-2-(7-(4-chlorophenyl)-2-(2-(4-ethylpiperazin-1-yl)pyrimidin-4-yl)-5-methylbenzo[d]thiazol-6-yl)acetic acid] as the molecule, how does the EC50 read?
**A.** Its EC50 is 6 nM.

**Q.** Cc1cc2nc(-c3ccnc(N4CCNCC4)n3)sc2c(-c2ccc(Cl)cc2)c1[C@H](OC(C)(C)C)C(=O)O [Compound 476, (S)-2-tert-butoxy-2-(7-(4-chlorophenyl)-5-methyl-2-(2-(piperazin-1-yl)pyrimidin-4-yl)benzo[d]thiazol-6-yl)acetic acid] was tested. Which EC50 did it give?
**A.** Its EC50 is 128 nM.

**Q.** Cc1cc2nc(-c3ccnc(N4CCCN(C)CC4)n3)sc2c(-c2ccc(Cl)cc2)c1[C@H](OC(C)(C)C)C(=O)O [Compound 477, (S)-2-tert-butoxy-2-(7-(4-chlorophenyl)-5-methyl-2-(2-(4-methyl-1,4-diazepan-1-yl)pyrimidin-4-yl)benzo[d]thiazol-6-yl)acetic acid] was tested. Which EC50 did it give?
**A.** The EC50 was 14 nM.

**Q.** With Cc1cc2nc(-c3ccnc(N4CC[C@H](N(C)C)C4)n3)sc2c(-c2ccc(Cl)cc2)c1[C@H](OC(C)(C)C)C(=O)O [Compound 478, (S)-2-tert-butoxy-2-(7-(4-chlorophenyl)-2-(2-((S)-3-(dimethylamino)pyrrolidin-1-yl)pyrimidin-4-yl)-5-methylbenzo[d]thiazol-6-yl)acetic acid] as the molecule, how does the EC50 read?
**A.** The EC50 was 4 nM.

**Q.** How did the EC50 turn out when Cc1cc2nc(-c3ccnc(N4CC[C@@H](N(C)C)C4)n3)sc2c(-c2ccc(Cl)cc2)c1[C@H](OC(C)(C)C)C(=O)O [Compound 479, (S)-2-tert-butoxy-2-(7-(4-chlorophenyl)-2-(2-((R)-3-(dimethylamino)pyrrolidin-1-yl)pyrimidin-4-yl)-5-methylbenzo[d]thiazol-6-yl)acetic acid] was run?
**A.** Its EC50 is 4 nM.

**Q.** Cc1cc2nc(-c3cncc(N4CCN(C(C)C)CC4)c3)sc2c(-c2ccc(Cl)cc2)c1[C@H](OC(C)(C)C)C(=O)O [Compound 481, (S)-2-tert-butoxy-2-(7-(4-chlorophenyl)-2-(5-(4-isopropylpiperazin-1-yl)pyridin-3-yl)-5-methylbenzo[d]thiazol-6-yl)acetic acid] was tested. Which EC50 did it give?
**A.** The EC50 was 17 nM.

**Q.** Which EC50 does the source give for Cc1cc2nc(-c3cncc(N4CCN(C5COC5)CC4)c3)sc2c(-c2ccc(Cl)cc2)c1[C@H](OC(C)(C)C)C(=O)O [Compound 482, (S)-2-tert-butoxy-2-(7-(4-chlorophenyl)-5-methyl-2-(5-(4-(oxetan-3-yl)piperazin-1-yl)pyridin-3-yl)benzo[d]thiazol-6-yl)acetic acid] here?
**A.** The EC50 was 14 nM.

**Q.** For Cc1cc2nc(-c3cccc(N4CCN(C(C)C)CC4)c3)sc2c(-c2ccc(Cl)cc2)c1[C@H](OC(C)(C)C)C(=O)O [Compound 483, (S)-2-tert-butoxy-2-(7-(4-chlorophenyl)-2-(3-(4-isopropylpiperazin-1-yl)phenyl)-5-methylbenzo[d]thiazol-6-yl)acetic acid], which EC50 is on record?
**A.** Its EC50 is 37 nM.

**Q.** With Cc1cc2nc(-c3csc(N4CCN(C(C)C)CC4)n3)sc2c(-c2ccc(Cl)cc2)c1[C@H](OC(C)(C)C)C(=O)O [Compound 484, (S)-2-tert-butoxy-2-(7-(4-chlorophenyl)-2-(2-(4-isopropylpiperazin-1-yl)thiazol-4-yl)-5-methylbenzo[d]thiazol-6-yl)acetic acid] as the molecule, how does the EC50 read?
**A.** Its EC50 is 9 nM.

**Q.** Cc1cc2nc(-c3cnc(N4CCN(C(C)C)CC4)s3)sc2c(-c2ccc(Cl)cc2)c1[C@H](OC(C)(C)C)C(=O)O [Compound 485, (S)-2-tert-butoxy-2-(7-(4-chlorophenyl)-2-(2-(4-isopropylpiperazin-1-yl)thiazol-5-yl)-5-methylbenzo[d]thiazol-6-yl)acetic acid] was tested. Which EC50 did it give?
**A.** Its EC50 is 15 nM.

**Q.** How did the EC50 turn out when Cc1cc2nc(-c3ncc(N4CCN(C(C)C)CC4)s3)sc2c(-c2ccc(Cl)cc2)c1[C@H](OC(C)(C)C)C(=O)O [Compound 486, (S)-2-tert-butoxy-2-(7-(4-chlorophenyl)-2-(5-(4-isopropylpiperazin-1-yl)thiazol-2-yl)-5-methylbenzo[d]thiazol-6-yl)acetic acid] was run?
**A.** Its EC50 is 31 nM.

**Q.** Cc1cc2nc(-c3ncc4c(n3)c(C)nn4C)sc2c(-c2ccc(Cl)cc2)c1[C@H](OC(C)(C)C)C(=O)O [Compound 487, (S)-2-tert-butoxy-2-(7-(4-chlorophenyl)-2-(1,3-dimethyl-1H-pyrazolo[4,3-d]pyrimidin-5-yl)-5-methylbenzo[d]thiazol-6-yl)acetic acid] was tested. Which EC50 did it give?
**A.** The EC50 was 12 nM.

**Q.** How did the EC50 turn out when Cc1cc2nc(-c3ccnc(-c4ccc5nc(N)ccc5c4)n3)sc2c(-c2ccc(Cl)cc2)c1[C@H](OC(C)(C)C)C(=O)O [Compound 489, (S)-2-(2-(2-(2-aminoquinolin-6-yl)pyrimidin-4-yl)-7-(4-chlorophenyl)-5-methylbenzo[d]thiazol-6-yl)-2-tert-butoxyacetic acid] was run?
**A.** The EC50 was 20 nM.

**Q.** Cc1cc2nc(N3CCN(C)[C@@H](c4ccc5c(cnn5C)c4)C3)sc2c(-c2ccc(Cl)cc2)c1[C@H](OC(C)(C)C)C(=O)O [Compound 491, (S)-2-tert-butoxy-2-(7-(4-chlorophenyl)-5-methyl-2-((S)-4-methyl-3-(1-methyl-1H-indazol-5-yl)piperazin-1-yl)benzo[d]thiazol-6-yl)acetic acid] was tested. Which EC50 did it give?
**A.** The EC50 was 51 nM.

**Q.** Cc1cc2nc(N3CCN(C)[C@H](c4ccc5c(cnn5C)c4)C3)sc2c(-c2ccc(Cl)cc2)c1[C@H](OC(C)(C)C)C(=O)O [Compound 492, (S)-2-tert-butoxy-2-(7-(4-chlorophenyl)-5-methyl-2-((R)-4-methyl-3-(1-methyl-1H-indazol-5-yl)piperazin-1-yl)benzo[d]thiazol-6-yl)acetic acid] was tested. Which EC50 did it give?
**A.** Its EC50 is 3 nM.
